Experimental findings from US20240116985A1, “STAPLED PEPTIDES AND METHODS THEREOF” (priority 2020, published 2024) are described below.

The term pIC50 denotes the negative decadic logarithm of the IC50, by convention in mol/L.

The structures appear in SMILES notation. pIC50: −log10 of the molar value. Like-named read-outs stand apart in the source and are kept apart here.

Test [1] addresses T1, full-length beta-Catenin (Uniprot ID P35222) (Homo sapiens, UniProt P35222).
T1 construct: 10 nM full-length beta-Catenin (Uniprot ID P35222)
T1 sequence (P35222 1-781): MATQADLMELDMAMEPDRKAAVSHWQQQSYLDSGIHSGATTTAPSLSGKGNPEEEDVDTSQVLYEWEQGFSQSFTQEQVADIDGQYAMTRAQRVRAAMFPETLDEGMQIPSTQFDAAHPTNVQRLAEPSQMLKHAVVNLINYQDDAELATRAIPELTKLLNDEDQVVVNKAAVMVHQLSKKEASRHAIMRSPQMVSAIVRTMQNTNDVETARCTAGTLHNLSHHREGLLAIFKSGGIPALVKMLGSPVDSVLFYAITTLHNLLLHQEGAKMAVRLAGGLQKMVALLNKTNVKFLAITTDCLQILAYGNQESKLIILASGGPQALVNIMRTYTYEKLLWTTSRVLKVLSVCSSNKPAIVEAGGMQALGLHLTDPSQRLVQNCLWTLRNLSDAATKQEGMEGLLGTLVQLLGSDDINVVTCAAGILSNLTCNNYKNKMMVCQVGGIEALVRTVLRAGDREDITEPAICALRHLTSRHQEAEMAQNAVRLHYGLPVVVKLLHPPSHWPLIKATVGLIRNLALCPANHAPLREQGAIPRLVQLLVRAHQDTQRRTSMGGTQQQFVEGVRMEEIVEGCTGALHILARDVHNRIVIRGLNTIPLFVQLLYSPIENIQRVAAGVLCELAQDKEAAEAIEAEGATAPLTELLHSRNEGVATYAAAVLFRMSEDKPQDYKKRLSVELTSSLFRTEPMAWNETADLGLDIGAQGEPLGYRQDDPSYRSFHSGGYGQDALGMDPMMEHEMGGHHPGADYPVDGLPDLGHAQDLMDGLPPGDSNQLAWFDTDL
Nature of the test: Fluorescence polarization IC50 (beta-catenin / 5FAM-TCF4 10-53 competition). Format: binding. To be noted: fluorescence polarization; read-out: beta-Catenin FP IC50.

The target of test [2] is T2, beta-catenin/TCF4 engagement (Homo sapiens, UniProt P35222).
T2 construct: expressed in transfected cells; host or cells: HEK293
T2 sequence (P35222 1-781): T1 sequence (P35222 1-781)
Nature of the test: Nano-BRET target engagement assay (B-cat-Halo & TCF4-Luc in HEK293 cells). Format: cell-based. To be noted: read-out: NanoBRET Abs IC50. On the technique in general: Bioluminescence resonance energy transfer reports proximity on the nanometre scale.

With `CC(=O)N1CCC[C@]12CC=CCCCC1(CCCC=CCCCOC(=O)N3CC[C@@](C(=O)N[C@@H](Cc4ccsc4)C(=O)N[C@@H](Cc4csc5ccccc45)C(=O)N[C@@H](CCC(N)=O)C(N)=O)(C3)NC(=O)[C@H](CC(C)C)NC(=O)[C@H](Cc3ccccc3)NC(=O)[C@H](C)NC(=O)[C@H](C)NC(=O)[C@H](CNc3ccc([N+](=O)[O-])cc3C(=O)O)NC(=O)[C@H](CC(=O)O)NC1=O)NC(=O)[C@H](CC(C)(C)C)NC(=O)[C@H](CC(=O)O)NC2=O` (stereo partly drawn) [I-1843, Ac-PL3-Asp-Npg-B5-Asp-[2COOH4NO2Ph]Dap-Ala-Ala-Phe-Leu-PyrS2-3Thi-BztA-Gln-NH2], the pIC50 in test [1] is 7.49; in test [2] (absolute IC50), 5.02.

As for `CC(=O)N1CCC[C@]12CC=CCCCC1(CCCC=CCCCOC(=O)N3CC[C@@](C(=O)N[C@@H](Cc4ccsc4)C(=O)N[C@@H](Cc4csc5ccccc45)C(=O)N[C@@H](CCC(N)=O)C(N)=O)(C3)NC(=O)[C@H](CC(C)C)NC(=O)[C@H](Cc3ccccc3)NC(=O)[C@H](C)NC(=O)[C@H](C)NC(=O)[C@H](CNc3ncccc3C(=O)O)NC(=O)[C@H](CC(=O)O)NC1=O)NC(=O)[C@H](CC(C)(C)C)NC(=O)[C@H](CC(=O)O)NC2=O` (stereo partly drawn) [I-1845, Ac-PL3-Asp-Npg-B5-Asp-[2Nic]Dap-Ala-Ala-Phe-Leu-PyrS2-3Thi-BztA-Gln-NH2], the results for the pIC50 in test [1] and in test [2] (absolute IC50) were 7.52 and 5.20, respectively.

Take `CC(=O)N1CC2CC1C(=O)N[C@@H](CC(=O)O)C(=O)N[C@@H](CC(C)(C)C)C(=O)NC1(CCCC=CCCCOC(=O)N3CC[C@@](C(=O)N[C@@H](Cc4ccccc4Cl)C(=O)N[C@@H](Cc4csc5ccccc45)C(=O)N[C@@H](CCC(N)=O)C(N)=O)(C3)NC(=O)[C@H]([C@@H](C)O)NC(=O)[C@H](Cc3ccccc3)NC(=O)[C@H](C)NC(=O)[C@H](C)NC(=O)[C@H](CN(CC(=O)O)CC(F)(F)F)NC(=O)[C@H](CC(=O)O)NC1=O)CCCC=CCCC(=O)O2` (stereo partly drawn) [I-1846, Ac-HyPEs5-Asp-Npg-B5-Asp-TfeGA-Ala-Ala-Phe-Thr-PyrS2-2C1F-BztA-Gln-NH2]: the pIC50 in test [1] is 7.42; in test [2] (absolute IC50), 4.53.

Take `CC(=O)N1CCC[C@]12CC=CCCCC1(CCCC=CCCCOC(=O)N3CC[C@@](C(=O)N[C@@H](Cc4ccccc4Cl)C(=O)N[C@@H](Cc4csc5ccccc45)C(=O)N[C@@H](CO)C(N)=O)(C3)NC(=O)[C@H](C)NC(=O)[C@H](Cc3ccccc3)NC(=O)[C@H](C)NC(=O)[C@H](C)NC(=O)[C@H](Cc3cccc(C(=O)O)c3)NC(=O)[C@H](CC(=O)O)NC1=O)NC(=O)[C@H](CC(C)(C)C)NC(=O)[C@H](CC(=O)O)NC2=O` (stereo partly drawn) [I-1849, Ac-PL3-Asp-Npg-B5-Asp-3COOHF-Ala-Ala-Phe-Ala-PyrS2-2C1F-BztA-Ser-NH2]: the pIC50 was 7.72 in test [1] and 5.06 in test [2].

As to `CC(=O)N1CCC[C@]12CC=CCCCC1(CCCC=CCCCOC(=O)N3CC[C@@](C(=O)N[C@@H](Cc4ccccc4Cl)C(=O)N[C@@H](Cc4csc5ccccc45)C(=O)N[C@@H](CO)C(N)=O)(C3)NC(=O)[C@H](C(C)C)NC(=O)[C@H](Cc3ccccc3)NC(=O)[C@H](C)NC(=O)[C@H](C)NC(=O)[C@H](Cc3cccc(C(=O)O)c3)NC(=O)[C@H](CC(=O)O)NC1=O)NC(=O)[C@H](CC(C)(C)C)NC(=O)[C@H](CC(=O)O)NC2=O` (stereo partly drawn) [I-1850, Ac-PL3-Asp-Npg-B5-Asp-3COOHF-Ala-Ala-Phe-Val-PyrS2-2C1F-BztA-Ser-NH2], the figures for the negative-log IC50 (pIC50) in test [1] and in test [2] were 7.77 and 5.42, respectively.

With `CC(=O)N1CCC[C@]12CC=CCCCC1(CCCC=CCCCOC(=O)N3CC[C@@](C(=O)N[C@@H](Cc4ccccc4Cl)C(=O)N[C@@H](Cc4csc5ccccc45)C(=O)N[C@@H](C)C(N)=O)(C3)NC(=O)[C@H](CC(C)C)NC(=O)[C@H](Cc3ccccc3)NC(=O)[C@H](C)NC(=O)[C@H](C)NC(=O)[C@H](Cc3cccc(C(=O)O)c3)NC(=O)[C@H](CC(=O)O)NC1=O)NC(=O)[C@H](CC(C)(C)C)NC(=O)[C@H](CC(=O)O)NC2=O` (stereo partly drawn) [I-1851, Ac-PL3-Asp-Npg-B5-Asp-3COOHF-Ala-Ala-Phe-Leu-PyrS2-2C1F-BztA-Ala-NH2], the pIC50 in test [1] was 7.60; in test [2], 5.42.

`CC(=O)N1CCC[C@]12CC=CCCCC1(CCCC=CCCCOC(=O)N3CC[C@@](C(=O)N[C@@H](Cc4ccccc4Cl)C(=O)N[C@@H](Cc4csc5ccccc45)C(N)=O)(C3)NC(=O)[C@H](CC(C)C)NC(=O)[C@H](Cc3ccccc3)NC(=O)[C@H](C)NC(=O)[C@H](C)NC(=O)[C@H](Cc3cccc(C(=O)O)c3)NC(=O)[C@H](CC(=O)O)NC1=O)NC(=O)[C@H](CC(C)(C)C)NC(=O)[C@H](CC(=O)O)NC2=O` (stereo partly drawn) [I-1852, Ac-PL3-Asp-Npg-B5-Asp-3COOHF-Ala-Ala-Phe-Leu-PyrS2-2C1F-BztA-NH2]: the figures for the pIC50 in test [1] and in test [2] were 7.32 and 5.31, respectively.

Take `CC(=O)N1CCC[C@]12CC=CCCCC1(CCCC=CCCCOC(=O)N3CC[C@@](C(=O)N[C@@H](Cc4ccccc4Cl)C(=O)N[C@@H](Cc4csc5ccccc45)C(=O)N[C@@H](CO)C(N)=O)(C3)NC(=O)[C@H](CC(C)C)NC(=O)[C@H](Cc3ccccc3)NC(=O)[C@H](C)NC(=O)[C@H](C)NC(=O)[C@H](Cc3cccc(C(=O)O)c3)NC(=O)[C@H](CC(=O)O)NC1=O)NC(=O)[C@H](CC(C)(C)C)NC(=O)[C@H](CC(N)=O)NC2=O` (stereo partly drawn) [I-1853, Ac-PL3-Asn-Npg-B5-Asp-3COOHF-Ala-Ala-Phe-Leu-PyrS2-2C1F-BztA-Ser-NH2]: the pIC50 in test [1] was 6.94; in test [2], 4.79.

Consider `CC(=O)N1CCC[C@]12CC=CCCCC1(CCCC=CCCCOC(=O)N3CC[C@@](C(=O)N[C@@H](Cc4ccsc4)C(=O)N[C@@H](Cc4csc5ccccc45)C(=O)N[C@@H](CCC(N)=O)C(N)=O)(C3)NC(=O)[C@H](Cn3cc(CN(C)C)nn3)NC(=O)[C@H](Cc3ccccc3)NC(=O)[C@H](C)NC(=O)[C@H](C)NC(=O)[C@H](CN(CC(=O)O)CC(F)(F)F)NC(=O)[C@H](CC(=O)O)NC1=O)NC(=O)[C@H](CC(C)(C)C)NC(=O)[C@H](CC(=O)O)NC2=O` (stereo partly drawn) [I-1861, Ac-PL3-Asp-Npg-B5-Asp-TfeGA-Ala-Ala-Phe-[CH2NMe2]TriAzDap-PyrS2-3Thi-BztA-Gln-NH2], for which the results for the pIC50 in test [1] and in test [2] were 7.85 and 4.43, respectively.

As for `CC(=O)N1CCC[C@]12CC=CCCCC1(CCCC=CCCCOC(=O)N3CC[C@@](C(=O)N[C@@H](Cc4ccsc4)C(=O)N[C@@H](Cc4csc5ccccc45)C(=O)N[C@@H](CCC(N)=O)C(N)=O)(C3)NC(=O)[C@H](Cn3cc(CN(C)C)nn3)NC(=O)[C@H](Cc3ccccc3)NC(=O)[C@H](C)NC(=O)[C@H](C)NC(=O)[C@H](CN(CC(=O)O)CC(F)(F)F)NC(=O)[C@H](CC(=O)O)NC1=O)NC(=O)[C@H](CC(C)(C)C)NC(=O)[C@H](CC(=O)O)NC2=O` (stereo partly drawn) [I-1862, Ac-PL3-Asp-Npg-B5-Asp-TfeGA-Ala-Ala-Phe-[CH2NMe2]TriAzDap-PyrS2-3Thi-BztA-Gln-NH2], the pIC50 in test [1] is 8.00; in test [2], 4.71.

Take `CC(=O)N1CCC[C@]12CC=CCCCC1(CCCC=CCCCOC(=O)N3CC[C@@](C(=O)N[C@@H](Cc4ccsc4)C(=O)N[C@@H](Cc4csc5ccccc45)C(=O)N[C@@H](CCC(N)=O)C(N)=O)(C3)NC(=O)[C@H](Cn3cc(CN4CCNCC4)nn3)NC(=O)[C@H](Cc3ccccc3)NC(=O)[C@H](C)NC(=O)[C@H](C)NC(=O)[C@H](CN(CC(=O)O)CC(F)(F)F)NC(=O)[C@H](CC(=O)O)NC1=O)NC(=O)[C@H](CC(C)(C)C)NC(=O)[C@H](CC(=O)O)NC2=O` (stereo partly drawn) [I-1864, Ac-PL3-Asp-Npg-B5-Asp-TfeGA-Ala-Ala-Phe-[CH2Ppz]TriAzDap-PyrS2-3Thi-BztA-Gln-NH2]: the results for the pIC50 in test [1] and in test [2] were 7.85 and less than 4.70, respectively.

Turning to `CC(=O)N1CCC[C@]12CC=CCCCC1(CCCC=CCCCOC(=O)N3CC[C@@](C(=O)N[C@@H](Cc4ccsc4)C(=O)N[C@@H](Cc4csc5ccccc45)C(=O)N[C@@H](CCC(N)=O)C(N)=O)(C3)NC(=O)[C@H](Cn3cc(CN4CCOCC4)nn3)NC(=O)[C@H](Cc3ccccc3)NC(=O)[C@H](C)NC(=O)[C@H](C)NC(=O)[C@H](CN(CC(=O)O)CC(F)(F)F)NC(=O)[C@H](CC(=O)O)NC1=O)NC(=O)[C@H](CC(C)(C)C)NC(=O)[C@H](CC(=O)O)NC2=O` (stereo partly drawn) [I-1865, Ac-PL3-Asp-Npg-B5-Asp-TfeGA-Ala-Ala-Phe-[MorphCH2]TriAzDap-PyrS2-3Thi-BztA-Gln-NH2], the pIC50 in test [1] is 8.00; in test [2], less than 4.70.

On to `CC(=O)N1CCC[C@]12CC=CCCCC1(CCCC=CCCCOC(=O)N3CC[C@@](C(=O)N[C@@H](Cc4ccsc4)C(=O)N[C@@H](Cc4csc5ccccc45)C(=O)N[C@@H](CCC(N)=O)C(N)=O)(C3)NC(=O)[C@H](Cn3cc(CN4CCOCC4)nn3)NC(=O)[C@H](Cc3ccccc3)NC(=O)[C@H](C)NC(=O)[C@H](C)NC(=O)[C@H](CN(CC(=O)O)CC(F)(F)F)NC(=O)[C@H](CC(=O)O)NC1=O)NC(=O)[C@H](CC(C)(C)C)NC(=O)[C@H](CC(=O)O)NC2=O` (stereo partly drawn) [I-1866, Ac-PL3-Asp-Npg-B5-Asp-TfeGA-Ala-Ala-Phe-[MorphCH2]TriAzDap-PyrS2-3Thi-BztA-Gln-NH2], for which the pIC50 was 7.59 in test [1] and less than 4.70 in test [2].
